How the values were obtained:
[1] = target: T1, Sodium/hydrogen exchanger 3 (Homo sapiens, UniProt P48764); experiment: Cell-Based Assay of NHE-3 Activity (Pre-Incubation Inhibition): Rat and human NHE-3-mediated Na+-dependent H+ antiport was measured using a modification of the pH sensitive dye method originally reported by Paradiso (Proc. Natl. Acad. Sci. USA. (1984) 81(23): 7436-7440). PS120 fibroblasts stably expressing human NHE3 and NHERF2 were obtained from Mark Donowitz (Baltimore, Md.). Opossum kidney (OK) cells were obtained from the ATCC and propagated per their instructions. The rat NHE-3 gene (GenBank M85300) was introduced into OK cells via electroporation, and cells were seeded into 96 well plates and grown overnight. Medium was aspirated from the wells then incubated for 30 min at 37° C. with NH4Cl-HEPES buffer (20 mM NH4Cl, 80 mM NaCl, 50 mM HEPES, 5 mM KCl, 2 mM CaCl2, 1 mM MgCl2, pH 7.4) containing 5 μM BCECF-AM. Cells were washed once with Ammonium free, Na+-free HEPES (100 mM choline, 50 mM HEPES, 10 mM glucose, 5 mM KCl, 2 mM CaCl2, 1 mM MgCl2, pH 7.4) and incubated in the same buffer for 10 minutes at room temperature to lower intracellular pH with 0-30 μM test compound. […] Changes in intracellular pH were monitored using a FLIPR Tetra® (Molecular Devices, Sunnyvale, Calif.) by excitation at λex 439 to 505 nm, and measuring BCECF fluorescence at λem 538 nm. The initial rate of the fluorescence ratio change was used as a measure of NHE-mediated Na+/H+ activity, and reported as the change in fluorescence ratio per minute.
T1 sequence (P48764 whole entry): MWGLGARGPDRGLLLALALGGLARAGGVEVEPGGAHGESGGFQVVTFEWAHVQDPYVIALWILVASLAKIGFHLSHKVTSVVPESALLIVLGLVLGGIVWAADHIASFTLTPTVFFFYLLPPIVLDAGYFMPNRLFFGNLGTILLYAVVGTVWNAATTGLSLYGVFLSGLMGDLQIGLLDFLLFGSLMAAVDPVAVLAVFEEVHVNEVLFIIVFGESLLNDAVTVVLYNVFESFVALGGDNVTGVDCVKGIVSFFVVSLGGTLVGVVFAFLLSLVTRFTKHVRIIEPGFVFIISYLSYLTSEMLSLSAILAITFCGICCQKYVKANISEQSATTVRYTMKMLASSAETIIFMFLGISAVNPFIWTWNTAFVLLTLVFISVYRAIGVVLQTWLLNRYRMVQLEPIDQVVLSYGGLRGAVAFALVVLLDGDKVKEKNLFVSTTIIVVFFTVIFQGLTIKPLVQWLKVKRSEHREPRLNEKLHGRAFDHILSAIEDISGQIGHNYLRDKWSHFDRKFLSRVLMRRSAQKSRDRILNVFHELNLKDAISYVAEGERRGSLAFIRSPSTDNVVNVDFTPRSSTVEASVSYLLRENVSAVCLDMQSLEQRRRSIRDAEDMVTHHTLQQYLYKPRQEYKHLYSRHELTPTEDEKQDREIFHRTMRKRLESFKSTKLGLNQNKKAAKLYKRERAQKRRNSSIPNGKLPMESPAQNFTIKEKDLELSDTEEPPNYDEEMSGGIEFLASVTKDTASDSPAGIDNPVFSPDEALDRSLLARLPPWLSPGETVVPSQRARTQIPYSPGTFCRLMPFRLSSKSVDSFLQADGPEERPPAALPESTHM

[2] = target: T1, Sodium/hydrogen exchanger 3; experiment: Cell-Based Assay of NHE-3 Activity (Persistent Inhibition): The ability of compounds to inhibit human and rat NHE-3-mediated Na+ dependent H+ antiport after application and washout was measured using a modification of the pH sensitive dye method described above. PS120 fibroblasts stably expressing human NHE3 and NHERF2 were obtained from Mark Donowitz (Baltimore, Md.). Opossum kidney (OK) cells were obtained from the ATCC and propagated per their instructions. The rat NHE-3 gene was introduced into OK cells via electroporation, and cells were seeded into 96 well plates and grown overnight. Medium was aspirated from the wells, cells were washed once with NaCl-HEPES buffer (100 mM NaCl, 50 mM HEPES, 10 mM glucose, 5 mM KCl, 2 mM CaCl2, 1 mM MgCl2, pH 7.4), then overlayed with NaCl-HEPES buffer containing 0-30 μM test compound. After a 60 min incubation at room temperature, the test drug containing buffer was aspirated from the cells. Following aspiration, cells were washed once with NaCl-HEPES buffer without drug, then incubated for 30 min at 37° C. with NH4Cl-HEPES buffer (20 mM NH4Cl, 80 mM NaCl, 50 mM HEPES, 5 mM KCl, 2 mM CaCl2, 1 mM MgCl2, pH 7.4) containing 5 μM BCECF-AM. Cells were washed once with Ammonium free, Na+-free HEPES (100 mM choline, 50 mM HEPES, 10 mM glucose, 5 mM KCl, 2 mM CaCl2, 1 mM MgCl2, pH 7.4) and incubated in the same buffer for 10 minutes at room temperature to lower intracellular pH. NHE-3-mediated recovery of neutral intracellular pH was initiated ([…]) by addition of Na-HEPES buffer. […] Changes in intracellular pH were monitored using a FLIPR Tetra® (Molecular Devices, Sunnyvale, Calif.) by excitation at λex 439 to 505 nm, and measuring BCECF fluorescence at λem 538 nm. The initial rate of the fluorescence ratio change was used as a measure of NHE-mediated Na+/H+ activity, and reported as the change in fluorescence ratio per minute.

| Compound | IC50 [1] | IC50 [2] |
| --- | --- | --- |
| N[C@@H]1CCCN([C@H]2Cc3c(Cl)cc(Cl)cc3[C@@H]2Oc2c(F)cc(S(=O)(=O)NCCOCCOCCNC(=O)NCCCCNC(=O)NCCOCCOCCNS(=O)(=O)c3cc(F)c(O[C@H]4c5cc(Cl)cc(Cl)c5C[C@@H]4N4CCC[C@@H](N)C4)c(F)c3)cc2F)C1 | < 100 nM | < 100 nM |
| Cc1cc(S(=O)(=O)NCCOCCOCCNC(=O)NCCCCNC(=O)NCCOCCOCCNS(=O)(=O)c2ccc(O[C@H]3c4cc(Cl)cc(C)c4C[C@@H]3N3CCC[C@@H](N)C3)c(C)c2)ccc1O[C@H]1c2cc(Cl)cc(C)c2C[C@@H]1N1CCC[C@@H](N)C1 | < 100 nM | < 100 nM |
| Cc1cc(S(=O)(=O)NCCOCCOCCNC(=O)NCCCCNC(=O)NCCOCCOCCNS(=O)(=O)c2ccc(O[C@H]3c4cc(Cl)cc(Cl)c4C[C@@H]3N3CCC[C@@H](N(C)C)C3)c(C)c2)ccc1O[C@H]1c2cc(Cl)cc(Cl)c2C[C@@H]1N1CCC[C@@H](N(C)C)C1 | < 100 nM | < 100 nM |
| O=C(NCCCCNC(=O)NCCOCCN1CC[C@H](NS(=O)(=O)c2ccc(O[C@H]3c4cc(Cl)cc(Cl)c4C[C@@H]3N3CCNCC3)c(F)c2)C1)NCCOCCN1CC[C@H](NS(=O)(=O)c2ccc(O[C@H]3c4cc(Cl)cc(Cl)c4C[C@@H]3N3CCNCC3)c(F)c2)C1 | < 100 nM | < 100 nM |
| N#Cc1cc(Cl)cc2c1C[C@H](N1CCC[C@@H](N)C1)[C@H]2Oc1ccc(S(=O)(=O)NCCOCCOCCNC(=O)NCCCCNC(=O)NCCOCCOCCNS(=O)(=O)c2ccc(O[C@H]3c4cc(Cl)cc(C#N)c4C[C@@H]3N3CCC[C@@H](N)C3)cc2)cc1 | < 100 nM | < 100 nM |
| Cc1cc(O[C@H]2c3cc(Cl)cc(Cl)c3C[C@@H]2N2CCC[C@@H](N)C2)c(F)cc1S(=O)(=O)NCCOCCOCCNC(=O)NCCCCNC(=O)NCCOCCOCCNS(=O)(=O)c1cc(F)c(O[C@H]2c3cc(Cl)cc(Cl)c3C[C@@H]2N2CCC[C@@H](N)C2)cc1C | < 100 nM | < 100 nM |
| CN(C)[C@H]1Cc2c(OC(F)(F)F)cc(Cl)cc2[C@@H]1Oc1ccc(S(=O)(=O)NCCOCCOCCNC(=O)NCCCCNC(=O)NCCOCCOCCNS(=O)(=O)c2ccc(O[C@H]3c4cc(Cl)cc(OC(F)(F)F)c4C[C@@H]3N(C)C)cc2)cc1 | > 1000 nM | > 1000 nM |
| Cc1cc(Cl)cc2c1C[C@H](N1CCC[C@@H](N)C1)[C@H]2Oc1ccc(S(=O)(=O)NCCOCCOCCNC(=O)NCCCCNC(=O)NCCOCCOCCNS(=O)(=O)c2ccc(O[C@H]3c4cc(Cl)cc(C)c4C[C@@H]3N3CCC[C@@H](N)C3)cc2)cc1 | < 100 nM | < 100 nM |
| CN(C)[C@@H]1CCCN([C@H]2Cc3c(C#N)cc(Cl)cc3[C@@H]2Oc2ccc(S(=O)(=O)NCCOCCOCCNC(=O)NCCCCNC(=O)NCCOCCOCCNS(=O)(=O)c3ccc(O[C@H]4c5cc(Cl)cc(C#N)c5C[C@@H]4N4CCC[C@@H](N(C)C)C4)c(F)c3)cc2F)C1 | > 1000 nM | > 1000 nM |
| Cc1cc(S(=O)(=O)N2CC[C@@H](COCCOCCNC(=O)NCCCCNC(=O)NCCOCCOC[C@@H]3CCN(S(=O)(=O)c4ccc(O[C@H]5c6cc(Cl)cc(C#N)c6C[C@@H]5N(C)C)c(C)c4)C3)C2)ccc1O[C@H]1c2cc(Cl)cc(C#N)c2C[C@@H]1N(C)C | < 100 nM | < 100 nM |
| Cc1cc(S(=O)(=O)NCCOCCOCCNC(=O)NCCCCNC(=O)NCCOCCOCCNS(=O)(=O)c2cc(C)c(O[C@H]3c4cc(Cl)cc(Cl)c4C[C@@H]3N3CCC[C@@H](N)C3)cc2F)c(F)cc1O[C@H]1c2cc(Cl)cc(Cl)c2C[C@@H]1N1CCC[C@@H](N)C1 | < 100 nM | < 100 nM |
| CN(C)[C@H]1Cc2c(cc(Cl)cc2C(F)(F)F)[C@@H]1Oc1ccc(S(=O)(=O)NCCOCCOCCNC(=O)NCCCCNC(=O)NCCOCCOCCNS(=O)(=O)c2ccc(O[C@H]3c4cc(Cl)cc(C(F)(F)F)c4C[C@@H]3N(C)C)cc2)cc1 | > 1000 nM | > 1000 nM |
| Cc1cc(S(=O)(=O)N[C@@H]2CCN(CCOCCNC(=O)NCCCCNC(=O)NCCOCCN3CC[C@@H](NS(=O)(=O)c4ccc(O[C@H]5c6cc(Cl)cc(C#N)c6C[C@@H]5N(C)C)c(C)c4)C3)C2)ccc1O[C@H]1c2cc(Cl)cc(C#N)c2C[C@@H]1N(C)C | < 100 nM | < 100 nM |
| O=C(NCCCCNC(=O)NCCOCCOCCNS(=O)(=O)c1ccc(O[C@H]2c3cc(Cl)cc(Cl)c3C[C@@H]2N2C3CCCC2CC3)cc1)NCCOCCOCCNS(=O)(=O)c1ccc(O[C@H]2c3cc(Cl)cc(Cl)c3C[C@@H]2N2C3CCCC2CC3)cc1 | < 100 nM | < 100 nM |
| Cc1cc(S(=O)(=O)NCCOCCOCCNC(=O)NCCCCNC(=O)NCCOCCOCCNS(=O)(=O)c2ccc(O[C@H]3c4cc(Cl)cc(C#N)c4C[C@@H]3N3CCC[C@@H](N)C3)c(C)c2)ccc1O[C@H]1c2cc(Cl)cc(C#N)c2C[C@@H]1N1CCC[C@@H](N)C1 | > 1000 nM | > 1000 nM |
| Cc1cc(S(=O)(=O)NCCCCCCCCNC(=O)NCCCCNC(=O)NCCCCCCCCNS(=O)(=O)c2ccc(O[C@H]3c4cc(Cl)cc(Cl)c4C[C@@H]3N(C)C)c(C)c2)ccc1O[C@H]1c2cc(Cl)cc(Cl)c2C[C@@H]1N(C)C | > 1000 nM | > 1000 nM |
| COc1cc(Cl)cc2c1C[C@H](N1CCC[C@@H](N)C1)[C@H]2Oc1ccc(S(=O)(=O)NCCOCCOCCNC(=O)NCCCCNC(=O)NCCOCCOCCNS(=O)(=O)c2ccc(O[C@H]3c4cc(Cl)cc(OC)c4C[C@@H]3N3CCC[C@@H](N)C3)cc2)cc1 | < 100 nM | < 100 nM |
| N[C@@H]1CCCN([C@H]2Cc3c(Cl)cc(Cl)cc3[C@@H]2Oc2ccc(S(=O)(=O)NCCOCCOCCNC(=O)NCCCCNC(=O)NCCOCCOCCNS(=O)(=O)c3ccc(O[C@H]4c5cc(Cl)cc(Cl)c5C[C@@H]4N4CCC[C@@H](N)C4)c(F)c3)cc2F)C1 | < 100 nM | < 100 nM |
| N[C@@H]1CCCN([C@H]2Cc3c(Cl)cc(Cl)cc3[C@@H]2Oc2ccc(S(=O)(=O)NCCCCCCn3cc(CNC(=O)NCCCCNC(=O)NCc4cn(CCCCCCNS(=O)(=O)c5ccc(O[C@H]6c7cc(Cl)cc(Cl)c7C[C@@H]6N6CCC[C@@H](N)C6)cc5)nn4)nn3)cc2)C1 | < 100 nM | < 100 nM |
| Cc1cc(Cl)cc2c1C[C@H](N1CCC[C@@H](N)C1)[C@H]2Oc1ccc(S(=O)(=O)NCCOCCOCCNC(=O)NCCCCNC(=O)NCCOCCOCCNS(=O)(=O)c2ccc(O[C@H]3c4cc(Cl)cc(C)c4C[C@@H]3N3CCC[C@@H](N)C3)c(F)c2)cc1F | < 100 nM | < 100 nM |
| CN(C)[C@@H]1CCCN([C@H]2Cc3c(Cl)cc(Cl)cc3[C@@H]2Oc2ccc(S(=O)(=O)NCCOCCOCCNC(=O)NCCCCNC(=O)NCCOCCOCCNS(=O)(=O)c3ccc(O[C@H]4c5cc(Cl)cc(Cl)c5C[C@@H]4N4CCC[C@@H](N(C)C)C4)c(F)c3)cc2F)C1 | < 100 nM | < 100 nM |
| Cc1cc(Cl)cc2c1C[C@H](N(C)C)[C@H]2Oc1ccc(S(=O)(=O)NCCOCCOCCNC(=O)NCCCCNC(=O)NCCOCCOCCNS(=O)(=O)c2ccc(O[C@H]3c4cc(Cl)cc(C)c4C[C@@H]3N(C)C)c(F)c2)cc1F | < 100 nM | < 100 nM |
| CN(C)[C@H]1Cc2c(Cl)cc(Cl)cc2[C@@H]1Oc1ccc(S(=O)(=O)NCCCCCCCCNC(=O)NCCCCNC(=O)NCCCCCCCCNS(=O)(=O)c2ccc(O[C@H]3c4cc(Cl)cc(Cl)c4C[C@@H]3N(C)C)cc2)cc1 | > 1000 nM | > 1000 nM |
| Cc1cc(Cl)cc2c1C[C@H](N1CCNCC1)[C@H]2Oc1ccc(S(=O)(=O)NCCOCCOCCNC(=O)NCCCCNC(=O)NCCOCCOCCNS(=O)(=O)c2ccc(O[C@H]3c4cc(Cl)cc(C)c4C[C@@H]3N3CCNCC3)cc2)cc1 | < 100 nM | < 100 nM |

From ChEMBL document CHEMBL5728961, “Compounds useful for treating gastrointestinal tract disorders” (2022)
